Results taken from patent publication US12180474B2, “Methods of treating porphyria” (University of Pittsburgh—Of the Commonwealth System of …, priority 2018, dated 2024).

Key:
Format in all cases: in vivo
[1] = biological target: T1, Porcupine (PORCN) (Mus musculus, UniProt Q9JJJ7); experiment: Wnt-C59 in DDC-fed CD-1 mice (Example 2); conditions: 30 mg/kg i.p.
T1 construct: from tissue; host or cells: whole mouse in vivo; liver and serum analysed
T1 sequence (Q9JJJ7 1-461): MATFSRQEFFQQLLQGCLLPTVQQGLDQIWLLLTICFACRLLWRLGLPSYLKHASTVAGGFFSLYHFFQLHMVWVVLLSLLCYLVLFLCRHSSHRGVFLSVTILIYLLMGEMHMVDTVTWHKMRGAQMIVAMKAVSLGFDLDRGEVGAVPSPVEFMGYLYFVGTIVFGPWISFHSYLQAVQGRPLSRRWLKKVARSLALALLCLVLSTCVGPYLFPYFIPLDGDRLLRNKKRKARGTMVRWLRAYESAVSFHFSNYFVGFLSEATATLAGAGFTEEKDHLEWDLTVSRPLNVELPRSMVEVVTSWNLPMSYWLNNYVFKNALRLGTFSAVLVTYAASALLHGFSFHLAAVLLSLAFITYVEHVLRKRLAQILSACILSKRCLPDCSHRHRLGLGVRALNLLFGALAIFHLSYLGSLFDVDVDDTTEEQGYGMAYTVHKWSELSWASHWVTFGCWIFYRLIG
Procedure: Two-month old CD-1 mice were started on a 0.1% DDC diet to induce porphyria. Three days after starting the diet, mice received intraperitoneal (i.p.) injections of 30 mg/kg Porcupine (PORCN) inhibitor Wnt-C59. The Wnt-C59 was delivered on a five days on, two days off schedule for two weeks. Mice were sacrificed 6 hours after the final dose of Wnt-C59. Serum and livers from the control and experimental groups were utilized for IHC, Western blotting, and biochemical assays, as described in Example 1.

[2] = biological target: T1, Porcupine (PORCN); experiment: Wnt-C59 in WT1/WT2 mice, acute intermittent porphyria model (Example 3); conditions: 30 mg/kg i.p., vs control group
[3] = biological target: T1, Porcupine (PORCN); experiment: Wnt-C59, GS and p-mTOR IHC in DDC-fed WT1/WT2 mice (Example 4)
Text: To test the effect of Wnt-C59 on GS and p-mTOR levels, two-month old WT1/WT2 mice were exposed to a DCC diet, as described in Example 1, and received i.p. injections of Wnt-C59, as described in Example 2. Livers from the control and experimental groups were utilized for IHC, as described in Example 1.

[4] = five days on, two days off for two weeks, 0.1% DDC diet

## Cc1cc(-c2ccc(CC(=O)Nc3ccc(-c4cccnc4)cc3)cc2)ccn1 [Wnt-C59]
[1]; DDC diet
  glutamine synthetase (GS), β-catenin activity: decrease
  porphyrin accumulation (H&E): decreased
[1]; [4]
  serum ALP: significantly reduced
  serum ALT: significantly reduced
  serum AST: significantly reduced
  serum total bilirubin: significantly reduced
[2]
  ALA-D mRNA levels: significantly reduced
  ALA-S mRNA levels: significantly reduced
[3]; DCC diet and Wnt-C59 injection
  p-mTOR protein expression (IHC): no expression
[3]; DDC diet and Wnt-C59 injection
  GS protein expression (IHC): no expression
